Measured values from ChEMBL document CHEMBL1201862, “PubChem BioAssay data set” (2004).
Activity calls are given as the source filed them.

How the values were obtained:
Cytochrome P450 1A2 = biological target: T1, Cytochrome P450 1A2 (Homo sapiens, UniProt P05177);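 further: PubChem cytochrome P450 panel assay, CYP1A2 panel member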
T1 sequence (P05177 whole entry): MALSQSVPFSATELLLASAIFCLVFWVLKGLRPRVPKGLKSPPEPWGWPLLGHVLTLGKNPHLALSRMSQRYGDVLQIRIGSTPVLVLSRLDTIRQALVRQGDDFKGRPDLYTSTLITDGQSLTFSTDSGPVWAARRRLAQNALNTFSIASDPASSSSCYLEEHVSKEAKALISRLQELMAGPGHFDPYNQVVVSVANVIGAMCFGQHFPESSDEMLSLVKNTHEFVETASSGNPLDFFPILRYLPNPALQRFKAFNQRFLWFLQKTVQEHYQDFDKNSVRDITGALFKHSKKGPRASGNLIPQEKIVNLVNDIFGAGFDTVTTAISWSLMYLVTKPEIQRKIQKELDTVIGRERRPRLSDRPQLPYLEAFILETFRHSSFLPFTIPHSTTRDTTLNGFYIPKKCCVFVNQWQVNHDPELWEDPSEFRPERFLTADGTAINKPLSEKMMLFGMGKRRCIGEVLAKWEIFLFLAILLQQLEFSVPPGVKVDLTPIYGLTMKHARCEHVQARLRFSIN

Cytochrome P450 2C9 = Cytochrome P450 2C9 (Homo sapiens, UniProt P11712)
Cytochrome P450 3A4 = Cytochrome P450 3A4 (Homo sapiens, UniProt P08684);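 further: CYP3A4 tested as one member of a cytochrome P450 panel screen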
[1] = biological target: T2, High affinity choline transporter 1 (Homo sapiens, UniProt Q9GZV3); experiment: CHT inhibitors, dose response, cell-based, 5-point CRC, membrane potential dye (AID 504840); assay type: functional
T2 sequence (Q9GZV3 whole entry): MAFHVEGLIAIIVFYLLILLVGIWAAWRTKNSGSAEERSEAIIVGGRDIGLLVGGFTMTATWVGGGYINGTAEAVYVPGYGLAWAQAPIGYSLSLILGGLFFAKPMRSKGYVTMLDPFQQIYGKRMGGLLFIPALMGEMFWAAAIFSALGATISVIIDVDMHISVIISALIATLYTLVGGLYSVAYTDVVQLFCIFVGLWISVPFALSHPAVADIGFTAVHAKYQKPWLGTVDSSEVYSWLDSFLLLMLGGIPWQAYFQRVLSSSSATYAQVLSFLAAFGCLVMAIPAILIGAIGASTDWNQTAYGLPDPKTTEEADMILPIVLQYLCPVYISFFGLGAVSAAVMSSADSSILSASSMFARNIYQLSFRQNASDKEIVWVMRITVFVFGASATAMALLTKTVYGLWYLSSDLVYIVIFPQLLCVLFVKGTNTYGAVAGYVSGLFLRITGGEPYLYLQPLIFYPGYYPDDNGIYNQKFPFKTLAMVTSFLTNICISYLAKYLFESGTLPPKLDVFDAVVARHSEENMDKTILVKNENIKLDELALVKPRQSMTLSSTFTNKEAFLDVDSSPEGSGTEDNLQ

[2] = biological target: T3, Endoribonuclease toxin MazF (Escherichia coli K-12, UniProt P0AE70); experiment: MazF toxin RNase activators, dose response, biochemical, fluorescence, single-stranded RNA substrate, uHTS hits (AID 588481); assay type: functional
T3 sequence (P0AE70 whole entry): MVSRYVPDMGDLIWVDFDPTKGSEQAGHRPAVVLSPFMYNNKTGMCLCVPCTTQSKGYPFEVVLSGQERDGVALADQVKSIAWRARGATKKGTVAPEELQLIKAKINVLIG

[3] = biological target: T3, Endoribonuclease toxin MazF; experiment: fluorescent RNA oligo signal without MazF, dose response, counter-screen for MazEF activator project, biochemical, fluorescence, single-stranded RNase substrate (AID 588502); assay type: functional
Bcl-2-related protein A1 = biological target: T4, Bcl-2-related protein A1 (Mus musculus, UniProt Q07440); assay type: functional;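 further: confirmatory dose–response counterscreen on Bfl-1, used to check hits from a UBC13 polyubiquitin inhibitor campaign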
T4 sequence (Q07440 whole entry): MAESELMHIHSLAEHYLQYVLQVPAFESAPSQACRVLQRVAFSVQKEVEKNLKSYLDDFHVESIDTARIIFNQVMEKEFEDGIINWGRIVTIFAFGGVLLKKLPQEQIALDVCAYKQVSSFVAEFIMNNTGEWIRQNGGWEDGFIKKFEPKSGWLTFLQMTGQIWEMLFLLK

[4] = biological target: T5, Ubiquitin-conjugating enzyme E2 N (Homo sapiens, UniProt P61088); assay type: functional
T5 sequence (P61088 whole entry): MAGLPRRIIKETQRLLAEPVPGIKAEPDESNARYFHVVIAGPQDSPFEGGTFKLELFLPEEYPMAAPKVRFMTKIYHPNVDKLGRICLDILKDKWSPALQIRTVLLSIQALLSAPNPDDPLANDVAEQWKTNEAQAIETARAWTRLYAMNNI

[5] = biological target: T5, Ubiquitin-conjugating enzyme E2 N; assay type: functional; remark: listed apart in the source
SUMO-activating enzyme [6] = biological target: T6, SUMO-activating enzyme (Homo sapiens, UniProt Q9UBT2); experiment: SUMOylation inhibitor hit validation, confirmation, SUMOylation inhibitor project, biochemical, AlphaScreen (AID 2018); assay type: functional
SUMO-activating enzyme [7] = biological target: T6, SUMO-activating enzyme; experiment: inhibitors of in vitro SUMOylation cascade, primary screen, biochemical, HTRF, uHTS (AID 2006); assay type: protein-complex assay
[8] = biological target: T7, Calpain-2 catalytic subunit (Sus scrofa, UniProt P43367); experiment: pig calpain II inhibitor potency, dose response, biochemical, fluorogenic peptide substrate (AID 1420); assay type: functional
T7 sequence (P43367 whole entry): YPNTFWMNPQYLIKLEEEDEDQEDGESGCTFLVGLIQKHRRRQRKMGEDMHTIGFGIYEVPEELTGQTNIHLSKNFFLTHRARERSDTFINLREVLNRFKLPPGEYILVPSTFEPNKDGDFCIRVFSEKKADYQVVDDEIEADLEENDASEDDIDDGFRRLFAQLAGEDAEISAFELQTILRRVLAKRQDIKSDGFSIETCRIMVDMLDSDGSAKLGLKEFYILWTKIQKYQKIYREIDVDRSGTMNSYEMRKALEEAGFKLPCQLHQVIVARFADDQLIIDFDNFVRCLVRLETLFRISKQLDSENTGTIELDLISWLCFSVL

T6 sequence (Q9UBE0 whole entry): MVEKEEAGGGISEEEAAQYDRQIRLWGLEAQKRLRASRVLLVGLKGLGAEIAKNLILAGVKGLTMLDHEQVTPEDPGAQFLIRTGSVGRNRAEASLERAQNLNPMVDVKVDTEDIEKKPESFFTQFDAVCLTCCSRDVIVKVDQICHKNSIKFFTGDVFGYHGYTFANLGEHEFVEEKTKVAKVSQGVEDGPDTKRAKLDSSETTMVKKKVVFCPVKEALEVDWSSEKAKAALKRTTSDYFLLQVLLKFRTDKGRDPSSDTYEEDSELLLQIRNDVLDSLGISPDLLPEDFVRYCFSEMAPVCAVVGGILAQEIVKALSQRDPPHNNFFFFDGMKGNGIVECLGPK
T6 sequence (Q9UBT2 whole entry): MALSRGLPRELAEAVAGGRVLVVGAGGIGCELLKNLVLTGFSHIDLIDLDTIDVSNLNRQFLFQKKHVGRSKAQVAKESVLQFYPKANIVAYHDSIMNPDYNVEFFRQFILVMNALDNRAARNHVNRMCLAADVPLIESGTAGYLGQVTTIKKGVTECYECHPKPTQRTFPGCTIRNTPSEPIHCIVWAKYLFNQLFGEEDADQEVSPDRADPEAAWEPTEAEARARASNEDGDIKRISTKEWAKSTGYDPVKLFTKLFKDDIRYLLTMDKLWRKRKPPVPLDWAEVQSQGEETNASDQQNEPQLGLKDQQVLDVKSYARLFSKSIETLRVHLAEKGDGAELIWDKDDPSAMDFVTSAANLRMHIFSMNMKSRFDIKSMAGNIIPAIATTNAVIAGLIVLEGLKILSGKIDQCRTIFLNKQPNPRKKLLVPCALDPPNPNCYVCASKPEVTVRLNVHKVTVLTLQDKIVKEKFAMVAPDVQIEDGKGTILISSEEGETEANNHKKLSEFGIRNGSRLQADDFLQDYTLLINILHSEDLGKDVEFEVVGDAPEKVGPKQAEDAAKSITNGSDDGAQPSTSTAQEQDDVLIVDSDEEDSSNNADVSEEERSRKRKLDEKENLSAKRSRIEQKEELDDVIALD
Chain of Cytochrome P450 2C9 (P11712 whole entry): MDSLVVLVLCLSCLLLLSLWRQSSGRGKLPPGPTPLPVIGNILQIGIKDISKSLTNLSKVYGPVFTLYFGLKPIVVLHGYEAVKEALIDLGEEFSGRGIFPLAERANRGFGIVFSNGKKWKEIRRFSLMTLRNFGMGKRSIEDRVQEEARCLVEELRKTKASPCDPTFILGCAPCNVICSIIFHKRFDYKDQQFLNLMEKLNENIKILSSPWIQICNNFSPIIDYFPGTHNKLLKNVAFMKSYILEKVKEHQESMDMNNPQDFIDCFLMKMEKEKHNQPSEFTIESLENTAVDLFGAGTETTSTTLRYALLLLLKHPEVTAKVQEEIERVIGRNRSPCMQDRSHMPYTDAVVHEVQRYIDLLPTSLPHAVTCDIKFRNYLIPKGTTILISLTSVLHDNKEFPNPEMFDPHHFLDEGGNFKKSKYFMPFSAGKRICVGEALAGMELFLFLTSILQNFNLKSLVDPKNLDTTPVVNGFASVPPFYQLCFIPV
Chain of Cytochrome P450 3A4 (P08684 whole entry): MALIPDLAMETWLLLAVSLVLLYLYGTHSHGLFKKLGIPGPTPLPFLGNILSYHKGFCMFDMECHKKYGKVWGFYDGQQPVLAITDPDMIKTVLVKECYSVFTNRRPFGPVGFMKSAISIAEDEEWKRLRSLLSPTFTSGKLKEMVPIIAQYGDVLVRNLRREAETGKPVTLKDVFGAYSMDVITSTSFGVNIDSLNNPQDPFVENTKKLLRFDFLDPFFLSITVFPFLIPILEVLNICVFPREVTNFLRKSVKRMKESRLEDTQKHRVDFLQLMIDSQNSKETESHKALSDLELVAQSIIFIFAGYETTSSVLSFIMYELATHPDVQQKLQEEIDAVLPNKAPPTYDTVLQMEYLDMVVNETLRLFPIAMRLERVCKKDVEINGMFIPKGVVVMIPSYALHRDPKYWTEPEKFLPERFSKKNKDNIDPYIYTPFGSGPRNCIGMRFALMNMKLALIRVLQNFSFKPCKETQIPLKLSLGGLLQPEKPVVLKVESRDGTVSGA

CCCCOC(=O)c1ccc(NC(=S)NC(=O)c2c(Cl)cnn2C)cc1
AC50 (Cytochrome P450 1A2): 39.8 µM (inconclusive) | AC50 (Cytochrome P450 2C9): 39.8 µM (inconclusive) | AC50 (Cytochrome P450 3A4): inconclusive

CCOc1ccccc1C(=O)NC(C)c1ccc2c(c1)OCO2 (stereo not given)
IC50 [1]: 19.1 µM (active)

CC(=O)Nc1ccc(C(=O)CSc2cc(C)c3cccc(C)c3n2)cc1
EC50 [2]: > 99 µM (inactive) | EC50 [3]: > 99 µM (inactive)

CCc1nnc(NS(=O)(=O)c2ccc(NC(=O)c3cc(Cl)ccc3Cl)cc2)s1
IC50 [1]: 12.3 µM (active)

Cc1noc(NS(=O)(=O)c2ccc(NC(=O)COc3ccc(Cl)cc3Cl)cc2)c1C
IC50 [1]: 1.08 µM (active)

Cc1ccccc1CNC(=O)CCCC(=O)n1nc(C)c2ccccc21
IC50 (Bcl-2-related protein A1): > 20 µM (inactive) | IC50 [4]: 13.5 µM (active) | IC50 [5]: 20 µM (active)

Cc1cc(C(=O)N/N=C/c2ccc(-c3ccc([N+](=O)[O-])cc3C)o2)[nH]n1
EC50 [2]: > 99 µM (inactive) | EC50 [3]: > 99 µM (inactive)

Cc1cccc2c1c(/N=N/C(=N)S)c(O)n2C1OC(CO)C(O)C(O)C1O (stereo not given)
IC50 (Bcl-2-related protein A1): > 20 µM (inactive) | IC50 [4]: 10.7 µM (active) | IC50 [5]: 4.56 µM (active)

C/C(=N\OCC(=O)Nc1ccccc1C(=O)O)c1cccs1
IC50 [1]: 11 µM (active)

O=C(Nc1ccc2oc(=O)ccc2c1)c1ccc(-c2cccc(Cl)c2)o1
IC50 (SUMO-activating enzyme [6]): 15.8 µM (active) | IC50 (SUMO-activating enzyme [7]): 6.77 µM (active) | IC50 [8]: 11.6 µM (not active)
